Assay results taken from patent publication EP2264054A1, “Cloning, yeast expression, purification and biological activity of a truncated form of the soybean 7S globulin alfa ' subunit involved in Hep G2 cell cholesterol homeostasis” (Indena S.p.A., priority 2009, dated 2010).

What was measured:
[1] = tested on: HepG2 cells; experiment: Uptake of 125I-LDL by HepG2 cells; type: cell-based, human; conditions: 1.0 µmol/L
Text: Cell cultures. The established human hepatoma cell line (HepG2) was obtained from American Type Culture Collection (Rockville, MD). Eagle's minimum essential medium (MEM), fetal calf serum, trypsin-EDTA (1x), penicillin (10^5 U/L), streptomycin ([…]), tricine buffer (1 mmol/L, pH 7.4) and non-essential amino acid solutions (100x) were from GIBCO (Madison, WI). Petri dishes were from COSTAR (Cambridge, MA). Filters were from Millipore (Bedford, MA). The Protein Coomassie Plus Protein Assay kit was purchased from Pierce (Rockford, IL, USA). ^125Iodine, carrier free, in 100 mmol/L NaOH, was from Perkin Elmer Life Sciences (Boston, MA). Sephadex G25 columns (PD10) were from Pharmacia Biotech (Uppsala, Sweden). LDH and MTT kit were from Sigma Diagnostics (Milano-Italy). All other chemicals were of analytical grade from Merck (Darmstadt, Germany). […] Cell enzyme leakage was determined by measuring lactate dehydrogenase (LDH) activity, using a kinetic (LDH/LD) diagnostic kit (Sigma Diagnostics). […]
Uptake and degradation of ^125I-LDL. […] Specific uptake (binding + internalization) and degradation of ^l25I-LDL were evaluated as previously reported. […] Differences in cell uptake and degradation of LDL after cell incubation with tα' at different concentrations were determined by ANOVA followed by Dunnett's test. Values are expressed as means ± SD; P values < 0.05 were considered as statistically significant.

[2] = tested on: HepG2 cells; experiment: Degradation of 125I-LDL by HepG2 cells; type: cell-based, human; conditions: 1.0 µmol/L
Procedure: Cell cultures. […] Cells were grown in monolayers in 90 mm-diameter Petri dishes, and maintained at 37°C in a humidified atmosphere of 95% air, 5% CO2 in MEM supplemented with 10% fetal calf serum (FCS), non essential amino acid solution (1%, v/v), penicillin (10^5 U/L), streptomycin (0.1 g/L), tricine buffer (20 mmol/L, pH 7.4), NaHCO3 (24 mmol/L) and sodium pyruvate (0.11 g/L). For experiments designed to evaluate the LDL receptor modulation, cells were seeded in 35 mm plastic dishes (3-5 x 10^5 cells) and used just before reaching confluence. In all cell culture experiments, the medium was changed every 2-3 days. In order to assess cell viability, culture media from cells exposed to tα' at different concentrations were tested by methyltetrazolium salts (MTT) assay, essentially as described in ref. 9. Cell enzyme leakage was determined by measuring lactate dehydrogenase (LDH) activity, using a kinetic (LDH/LD) diagnostic kit (Sigma Diagnostics). […]
Uptake and degradation of ^125I-LDL. […] Specific uptake (binding + internalization) and degradation of ^l25I-LDL were evaluated as previously reported [2]. […] Differences in cell uptake and degradation of LDL after cell incubation with tα' at different concentrations were determined by ANOVA followed by Dunnett's test. Values are expressed as means ± SD; P values < 0.05 were considered as statistically significant.

[3] = tested on: LDL-R; conditions: Hep G2 cells exposed to the peptide at 100 µM; cited from earlier work
[4] = 24 h preincubation in MEM with 5% LPDS, then 125I-LDL 7.5 mg/L for 5 h, mean ± SD

Compound | Uptake [1, 4] | Uptake ([1]; relative to LPDS = 100) [%] | Degradation [2, 4] | Degradation ([2]; relative to LPDS = 100) [%] | increased LDL-R transcription [3]
CCC(C)(C)C(=O)O[C@H]1C[C@@H](C)C=C2C=C[C@H](C)[C@H](CC[C@@H]3C[C@@H](O)CC(=O)O3)[C@H]21 [Simvastatin] | 250 ± 11.2 ng125I-LDL/ mg cell proteins | 278 | 195 ± 7.9 ng125I-LDL/ mg cell protein | 250 | 
FVVNATSN [LDL-R transcription stimulating peptide deriving from the 7S globulin β chain, from a soybean hydrolysate and by chemical synthesis] |  |  |  |  | +148%
